Reference: patent US20080299076A1, “Compunds and compositions that cause non-apoptotic cell death and uses thereof” (priority 2006, published 2008)
≈ marks a conversion by molar mass, not a printed value.

What was measured:
[1] = test system: BJ-TERT/LT/ST/RAS^V12 cells; experiment: ATP detection; type: cell-based, human; details: erastin 20 μg/mL for 12 hours
Procedure: Cells were seeded in polystyrene 100×20 mm dishes (Falcon/#353003) in 10 mL of media. Three million cells were seeded in each dish for staurosporine (STS) and erastin treatment. Two million cells were seeded in each dish for no treatment and hydrogen peroxide treatment. Cells were treated with staurosporine (1 μM) for 12 hours, with H2O2 (16 mM) for 1.5 hours and erastin (20 μg/mL) for 12 hours. After the incubation, we counted cells using a CiCell analyzer (Beckman). 100,000 cells from each treatment were collected and washed twice in Hank's Salt Solution (10 ml). Next, we suspended cells in 200 μl of Nucleotide Releasing Buffer (BioVision/K254-200 ApoSensor Cell Viability Assay Kit) and incubated at room temperature for 10 minutes. To 10 μl of the above sample, we added 1 μl of ATP Minitoring Enzyme (BioVision/K254-200 ApoSensor Cell Viability Assay Kit) and read the ATP levels of the samples using a luminometer.
ATP levels were measured in BJERL cells treated with nothing (NT), treated with 1 μM of Staurosporine (STS) for 12 hours, with 16 mM of hydrogen peroxide for 1.5 hours and 20 μg/mL of erastin for 12 hours. ATP levels were normalized by number of viable cells.

tumor cell lines = experiment: Dose-response of panel of tumor cell lines to erastin; type: cell-based
Procedure: In certain aspects, the invention provides that erastin is lethal to tumor cells with activating mutations in proteins downstream of RAS proteins. Dose-response of 30 tumor cell lines to erastin was measured, and at least 50% inhibition of cell viability in 19 of the 30 tumor cell lines was formed. Numerous sarcoma-derived tumor cell lines were sensitive to erastin, consistent with the fact that erastin was discovered in an engineered tumor cell line created from human fibroblasts. Non-limiting examples include, HT1080 fibrosarcoma cells. HT1080 fibrosarcoma cells, which have a known activating mutation in NRAS, (Plattner, R. et al. Differential contribution of the ERK and JNK mitogen-activated protein kinase cascades to Ras transformation of HT1080 fibrosarcoma and DLD-1 colon carcinoma cells. Oncogene. 18: 1807-17 (1999)), were quite sensitive to erastin. In order to determine whether RAS-activated signaling was modulated in cell lines that respond to erastin, the phosphorylation status of ERK1/2 in 12 sarcoma cell lines with a range of sensitivities to erastin was evaluated. In certain aspects, the invention provides a non-zero correlation, such as for example, a correlation coefficient of 0.41, between ERK1/2 phosphorylation status and erastin sensitivity in these cell lines. […]

A549 cells = experiment: Alamar Blue viability assay; type: cell-based; details: Homo sapiens; A549 (+KRAS)
Procedure: (§1) Alamar Blue metabolism: 10% Alamar Blue was added to assay plates, which were then incubated for an additional 16 hours. Red fluorescence, resulting from reduction of Alamar Blue, was detected on a Victor3 platereader (ex: 530, em: 590).
(§2) Table 2. Activity of RAS-selective lethal compound erastin in tumor cell lines. IC50 values (ng/mL) are shown using the Alamar Blue viability assay. BJ engineered tumor cells express TERT, LT, ST, and oncogenic RAS. Isogenic RAS^V12 lacking cells are identical but lack HRAS^V12. BJ-DRD cells are derived from BJ cells and contain TERT, oncogenic RAS, a truncated from of p53 (p53DD) that disrupts the tetramerization of endogenous p53, a CDK4(R24C) mutant resistant to inhibition by p16INK4A and p151NK4B (the major negative regulators of CDK4) and cyclin D1. These latter protein substitute for LT. HCT-116, A549, Calu-1, and MIA PaCa-2 are tumor cells derived from cancers (colon, lung, lung and pancreatic, respectively) known to have activating mutations in RAS.

Calu-1 cells = experiment: Alamar Blue viability assay; type: cell-based; details: Homo sapiens; Calu-1 (+KRAS)
Procedure: as §1, §2

BJ-TERT/LT/ST cells = experiment: Alamar Blue viability assay; type: cell-based; details: Homo sapiens; BJ-TERT/LT/ST (lacking HRAS^V12)
Procedure: as §1, §2

HCT-116 cells = experiment: Alamar Blue viability assay; type: cell-based; details: Homo sapiens; HCT-116 (+KRAS)
Procedure: as §1, §2

MIA PaCa-2 cells = experiment: Alamar Blue viability assay; type: cell-based; details: Homo sapiens; MIA PaCa-2 (+KRAS)
Procedure: as §1, §2

PARP1 = PARP1 cleavage (western blot); type: cell-based, human; details: BJ-TERT/LT/ST/RAS^V12 cells; staurosporine 1 μM 6 h, camptothecin 1 μM 18 h, erastin 20 μg/mL
Procedure: BJ-TERT/LT/ST/RAS^V12 tumor cells were seeded in six-well dishes, incubated overnight at 37° C. with 5% CO2 and were treated with nothing (NT), staurosporine (ST, 1 μM) for 6 h, camptothecin (C, 1 μM) for 18 h, or erastin (20 μg/mL) for the indicated time, lysed and analyzed by western blot with an anti-PARP1 antibody. A relatively high concentration of erastin was used to ensure loss of PARP cleavage was not due to a concentration-dependent effect.
BJ-TERT/LT/ST/RAS^V12 cells were seeded in polystyrene 100×20 mm dishes (Falcon/#353003) in 10 ml of media. Three million cells were seeded in each dish. After overnight incubation at 37° C. with 5% CO2, BJ-TERT/LT/ST/RAS^V12 cells were treated with nothing, staurosporine (1 μM) for 6 h, camptothecin (1 μM) for 18 h or erastin (20 μg/mL) for 6, 10, 12, 12.5, 13, 14, 18 or 26 h, and prepared for western blotting.

CCOc1ccccc1-n1c(C(C)N2CCN(C(=O)COc3ccc(Cl)cc3)CC2)nc2ccccc2c1=O (stereo not drawn) [erastin, 2-(1-{4-[2-(4-Chloro-phenoxy)-acetyl]-piperazin-1-yl}-ethyl)-3-(2-ethoxy-phenyl)-3H-quinazolin-4-one]
ATP levels per viable cell [1]: decreased modestly
number of cell lines with at least 50% inhibition of viability (tumor cell lines; of 29 tumor cell lines): 18
number of cell lines with at least 50% inhibition of cell viability (tumor cell lines; of 30 tumor cell lines): 19
IC50 (A549 cells): > 20 µg/mL
IC50 (Calu-1 cells): 1 µg/mL (≈ 1.83 µM)
IC50 (BJ-TERT/LT/ST cells): > 20 µg/mL
IC50 (HCT-116 cells): > 20 µg/mL
IC50 (MIA PaCa-2 cells): 5 µg/mL (≈ 9.14 µM)
PARP1 cleavage (PARP1): unaffected
